Results from patent US11191271B2, “Active compound combinations having insecticidal/acaricidal properties” (priority 2017, dated 2021).

How the values were obtained:
Assay type in all cases: in vivo
[1] = tested on: caterpillars of the fall army worm (Spodoptera frugiperda); assay: Spodoptera frugiperda - spray test; settings: for Efficacy in % after 1 day: mortality after 1 day; for Efficacy in % after 2 days: mortality after 2 days; for Efficacy in % after 3 days: mortality after 3 days; for Efficacy in % after 6 days: mortality after 6 days
Experimental: (§1) Formula for the Efficacy of the Combination of Two Compounds • The expected efficacy of a given combination of two compounds is calculated as follows (see Colby, S. R., “Calculating Synergistic and antagonistic Responses of Herbicide Combinations”, Weeds 15, pp. 20-22, 1967): • If • X is the efficacy expressed in % mortality of the untreated control for test compound A at a concentration of m ppm respectively m g/ha, • Y is the efficacy expressed in % mortality of the untreated control for test compound B at a concentration of n ppm respectively n g/ha, • E is the efficacy expressed in % mortality of the untreated control using the mixture of A and B at m and n ppm respectively m and n g/ha, • then is
(§2) [formula] • If the observed insecticidal efficacy of the combination is higher than the one calculated as “E”, then the combination of the two compounds is more than additive, i.e. there is a synergistic effect.
Spodoptera frugiperda—Spray Test
(§3) Solvent: 7 parts by weight of dimethylformamide
(§4) Emulsifier: alkylaryl polyglycol ether
(§5) To produce a suitable preparation of active compound, 1 part by weight of active compound is mixed with the stated amount of solvent and is diluted with water, containing an emulsifier concentration of 1000 ppm, to the desired concentration. Further test concentrations are prepared by dilution with emulsifier containing water.
Cotton leaves (Gossypium hirsutum) are treated by being sprayed with the preparation of the active compound of the desired concentration and are infested with caterpillars of the fall army worm (Spodoptera frugiperda).
After the specified period of time mortality in % is determined. 100% means all the caterpillars have been killed and 0% means none of the caterpillars have been killed. The mortality values determined thus are recalculated using the Colby-formula (see above).

[2] = tested on: two spotted spidermite (Tetranychus urticae); assay: Tetranychus urticae - spray test OP-resistant; settings: for Efficacy in % after 6 days: mortality after 6 days; for Efficacy in % after 2 days: mortality after 2 days
Experimental: as §1, §2
Tetranychus urticae—Spray Test OP-Resistant
as §5, with “solvents” for “solvent”
French bean (Phaseolus vulgaris) leaf disks infected with all instars of the two spotted spidermite (Tetranychus urticae), are sprayed with a preparation of the active ingredient of the desired concentration.
After the specified period of time, mortality in % is determined. 100% means all spider mites have been killed and 0% means none of the spider mites have been killed. The mortality values determined thus are recalculated using the Colby-formula (see above).

[3] = tested on: cotton aphid (Aphis gossypii); assay: Aphis gossypii - spray test; settings: for Efficacy in % after 1 day: mortality after 1 day, cotton leaves; for Efficacy in % after 6 days: mortality after 6 days
Experimental: as §1, §2
Aphis gossypii—Spray Test
as §3, §4, §5
Cotton leaves (Gossypium hirsutum) which are heavily infested with the cotton aphid (Aphis gossypii) are treated by being sprayed with the preparation of the active compound of the desired concentration.
After the specified period of time the mortality in % is determined. 100% means all the aphids have been killed; 0% means none of the aphids have been killed. The mortality values determined thus are recalculated using the Colby-formula (see above).

Q: `CNC(=O)c1cc(C#N)cc(C)c1NC(=O)c1cc(Cn2nnc(C(F)(F)F)n2)nn1-c1ncccc1Cl` [Tetraniliprole, 1-(3-chloro-2-pyridyl)-4′-cyano-2′-methyl-6′-methylcarbamoyl-3-{[5-(trifluoromethyl)-2H-tetrazol-2-yl]methyl}pyrazole-5-carboxanilide] was tested. Which “Efficacy in % after 1 day” value ([1]; 0.06 ppm) did it give?
A: The value was 0%.

Q: What about the “Efficacy in % after 2 days” value ([1]; 0.06 ppm) of the same compound?
A: The value was 60%.

Q: What about the “Efficacy in % after 1 day” value ([1]; 0.12 ppm) of the same compound?
A: Its value is 30%.

Q: What about the “Efficacy in % after 1 day” value ([1]; 0.24 ppm) of the same compound?
A: The value was 40%.

Q: And the “Efficacy in % after 6 days” value ([2]; 0.05 g ai/ha)?
A: Its value is 0%.

Q: What about the “Efficacy in % after 2 days” value ([2]; 0.2 g ai/ha) of the same compound?
A: Its value is 0%.

Q: What about the “Efficacy in % after 2 days” value ([2]; 0.8 g ai/ha) of the same compound?
A: The value was 0%.

Q: And the “Efficacy in % after 2 days” value ([2]; 3.2 g ai/ha)?
A: Its value is 0%.

Q: Which “Efficacy in % after 1 day” value ([3]; 8 ppm) does the source give for `CNC(=O)c1cc(Cl)cc(C)c1NC(=O)c1cc(Br)nn1-c1ncccc1Cl` [Chlorantraniliprole, 3-bromo-4′-chloro-1-(3-chloro-2-pyridyl)-2′-methyl-6′-(methylcarbamoyl)pyrazole-5-carboxanilide] here?
A: Its value is 10%.

Q: What about the “Efficacy in % after 6 days” value ([3]; 8 ppm) of the same compound?
A: Its value is 45%.

Q: And the “Efficacy in % after 2 days” value ([2]; 0.2 g ai/ha)?
A: The value was 0%.

Q: What about the “Efficacy in % after 2 days” value ([2]; 0.8 g ai/ha) of the same compound?
A: Its value is 0%.

Q: And the “Efficacy in % after 2 days” value ([2]; 3.2 g ai/ha)?
A: Its value is 0%.

Q: For `CNC(=O)c1cc(C#N)cc(C)c1NC(=O)c1cc(Br)nn1-c1ncccc1Cl` [Cyantraniliprole, 3-bromo-1-(3-chloro-2-pyridyl)-4′-cyano-2′-methyl-6′-(methylcarbamoyl)pyrazole-5-carboxanilide], which “Efficacy in % after 2 days” value ([1]; 0.12 ppm) is on record?
A: The value was 0%.

Q: And the “Efficacy in % after 3 days” value ([1]; 0.12 ppm)?
A: Its value is 0%.

Q: And the “Efficacy in % after 6 days” value ([1]; 0.12 ppm)?
A: Its value is 10%.

Q: And the “Efficacy in % after 1 day” value ([1]; 0.24 ppm)?
A: The value was 0%.

Q: And the “Efficacy in % after 2 days” value ([1]; 0.24 ppm)?
A: The value was 0%.

Q: And the “Efficacy in % after 3 days” value ([1]; 0.24 ppm)?
A: The value was 10%.

Q: And the “Efficacy in % after 6 days” value ([1]; 0.24 ppm)?
A: Its value is 20%.

Q: What about the “Efficacy in % after 3 days” value ([1]; 0.48 ppm) of the same compound?
A: The value was 60%.

Q: What about the “Efficacy in % after 6 days” value ([1]; 0.48 ppm) of the same compound?
A: Its value is 70%.

Q: And the “Efficacy in % after 2 days” value ([2]; 0.2 g ai/ha)?
A: Its value is 0%.

Q: And the “Efficacy in % after 2 days” value ([2]; 0.8 g ai/ha)?
A: The value was 0%.

Q: And the “Efficacy in % after 2 days” value ([2]; 3.2 g ai/ha)?
A: Its value is 0%.

Q: For `Cc1cc(F)c(N=C2SCC(=O)N2CC(F)(F)F)cc1[S+]([O-])CC(F)(F)F` (stereo not shown) [Cpd of formula (I)], which “Efficacy in % after 6 days” value ([3]; 0.8 ppm) is on record?
A: Its value is 0%.

Q: What about the “Efficacy in % after 1 day” value ([3]; 1.6 ppm) of the same compound?
A: Its value is 0%.

Q: And the “Efficacy in % after 6 days” value ([3]; 1.6 ppm)?
A: Its value is 0%.

Q: What about the “Efficacy in % after 1 day” value ([1]; 0.3 ppm) of the same compound?
A: Its value is 0%.

Q: And the “Efficacy in % after 2 days” value ([1]; 0.3 ppm)?
A: The value was 0%.

Q: What about the “Efficacy in % after 3 days” value ([1]; 0.3 ppm) of the same compound?
A: The value was 0%.

Q: And the “Efficacy in % after 6 days” value ([1]; 0.3 ppm)?
A: The value was 0%.

Q: What about the “Efficacy in % after 1 day” value ([1]; 0.6 ppm) of the same compound?
A: Its value is 0%.

Q: What about the “Efficacy in % after 2 days” value ([1]; 0.6 ppm) of the same compound?
A: The value was 0%.

Q: What about the “Efficacy in % after 3 days” value ([1]; 0.6 ppm) of the same compound?
A: Its value is 0%.

Q: And the “Efficacy in % after 6 days” value ([1]; 0.6 ppm)?
A: Its value is 0%.

Q: And the “Efficacy in % after 1 day” value ([1]; 1.2 ppm)?
A: The value was 0%.

Q: And the “Efficacy in % after 3 days” value ([1]; 1.2 ppm)?
A: The value was 0%.

Q: And the “Efficacy in % after 6 days” value ([1]; 1.2 ppm)?
A: Its value is 0%.

Q: And the “Efficacy in % after 6 days” value ([2]; 0.1 g ai/ha)?
A: The value was 0%.

Q: What about the “Efficacy in % after 2 days” value ([2]; 0.4 g ai/ha) of the same compound?
A: Its value is 0%.

Q: What about the “Efficacy in % after 2 days” value ([2]; 1.6 g ai/ha) of the same compound?
A: Its value is 0%.

Q: What about the “Efficacy in % after 2 days” value ([2]; 6.4 g ai/ha) of the same compound?
A: The value was 0%.
